Test results published in patent US9663789B2, “PME-1 as a biomarker to predict and diagnose endometrial and breast cancer and gene silencing of PME-1 to inhibit epithelial to mesenchymal transition” (MEDICAL DIAGNOSTIC LABORATORIES, LLC, priority 2013, dated 2017).

Legend:
[1] = tested on: Ishikawa cells; experiment: Foci formation assay, Ishikawa cells; assay type: cell-based, human; conditions: DMSO set to 100%
Experimental: This study was completed in Ishikawa endometrial cancer cells.
1,000 cells were plated in a six well tissue culture dish in selection media (to include 5 μg/ml puromycin) (InvivoGen). Cells were allowed to adhere and grow in a 5% CO2, 37° C. incubator for 10 to 14 days. […] Cells were stained with 1% crystal violet (Sigma Aldrich) for five minutes and rinsed with PBS. Colonies were counted and data is presented as the percentage of change compared to the control. All Experiments were repeated at least three times.

[2] = tested on: Ishikawa cells; experiment: Trans-well migration assay; assay type: cell-based, human; conditions: 24 hr, collagen, 30% FBS bottom chamber
Experimental: We next asked if PME-1 inhibition led to decreased cell migration by completing a trans-well migration assay. Cells were synchronized for 24 hours in media containing 0% FBS. For this experiment, DMSO was again used as the vehicle control and Ishikawa cells were treated with DMSO (control) or 50 nM ABL-127 or 20 μM AMZ-30 for 24 hr and were allowed to migrate through a collagen-coated well towards the bottom chamber, containing media with 30% FBS.
The assay was completed with ECC-1 endometrial carcinoma cell lines following kit instructions Cultrex 96 Well Collagen IV Cell Invasion Assay (cat #3458-096-K). Briefly, cells were serum starved for 24 hours prior to experimentation, then counted and put into the top chamber of a collagen type IV coated Transwell membrane at a concentration of 1×10^6 cells/well in 0% FBS. The bottom chamber contained 30% FBS. Cells were allowed to invade at 37° C. humid chamber incubator for 24 hours. Cells that invaded were analyzed using the kit provided Calcein-AM and fluorescence was read using FluoStar Galaxy.

[3] = molecular target: recombinant PME-1_des3 (Homo sapiens, UniProt Q9Y570); experiment: Thermal melt (thermal shift) assay; assay type: binding; conditions: 50 μM ABL-127; PME-1+DMSO vehicle ˜55° C.
Chain of recombinant PME-1_des3 (Q9Y570 1-383): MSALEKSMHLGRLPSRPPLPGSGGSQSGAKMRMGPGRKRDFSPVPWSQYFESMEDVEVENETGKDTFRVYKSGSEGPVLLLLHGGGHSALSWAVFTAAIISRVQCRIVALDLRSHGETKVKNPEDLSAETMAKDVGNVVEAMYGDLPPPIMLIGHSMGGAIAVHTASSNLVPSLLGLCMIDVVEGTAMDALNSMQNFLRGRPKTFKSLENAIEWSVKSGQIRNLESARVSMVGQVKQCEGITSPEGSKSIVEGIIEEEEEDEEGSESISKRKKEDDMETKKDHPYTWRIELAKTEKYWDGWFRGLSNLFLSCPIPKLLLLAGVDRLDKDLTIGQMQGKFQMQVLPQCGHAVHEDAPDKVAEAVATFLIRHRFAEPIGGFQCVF
Experimental: There are several commercially available covalent PME-1 inhibitors that we have analyzed as potential endometrial cancer therapeutics. To confirm that the inhibitors directly bind PME-1, we completed a thermal melt assay. One micromole (1 μmole) of recombinant PME-1_des3, of which the last 3 amino acids are deleted, were pre-incubated with SYBR orange in the presence of 50 μM ABL-127 (a potent covalent PME-1 inhibitor, squares) or 0.05% DMSO (vehicle, circles) for 10 minutes (FIG. 25) at 37° C. We then performed a thermal gradient, increasing the temperature by 2° C. each minute from 37° C. to 95° C. and fluorescent signal was detected at 492-601 nm on a thermal cycler. The increase in Tm from ˜55° C. (PME-1+DMSO, circles) to ˜65° C. (PME-1+ABL-127, squares) indicated thermal stabilization of the PME-1 protein via direct binding of the ABL-127 inhibitor (FIG. 25).
The assay was completed by first conducting a 10 min pre-incubation of one μmole of recombinant PME-1des3 with 50 μM ABL127 (Sigma) or vehicle (0.05% DMSO) in the presence of SYBR Orange (1:1,000, v/v, Sigma) at 37° C. in 1×NEB buffer 2 (50 mM NaCl, 10 mM Tris-HCl, 10 mM MgCl2, 1 mM DTT, pH 7.9 at 25° C.), a thermal gradient was performed increasing temperature by 2° C. per minute increments from 37° to 95° C. and fluorescence (492 nm-610 nm) was acquired on a thermal cycler Mx3005P (Stratagene).

[4] = tested on: RL95-2 cells; experiment: Colony forming / invasive growth assay in Matrigel; assay type: cell-based, human; conditions: RL95-2, 10 ng/ml TGF-β, 10 days
Experimental: To determine if PME-1 contributes to the more invasive and metastatic phenotypes, we performed a colony forming assay in matrigel.
The 3D On Top Matrigel Assay was completed in 24 well dishes. Briefly, the bottoms of 24 well dishes were coated with 50 μl BD Matrigel Basement Matrix Phenol Red Free (BD Biosciences cat. #356237) and allowed to solidify at 37° C. 10^5 cells were suspended in 250 μl chilled medium containing either 10 ng/ml of TGF-b or vehicle and allowed to settle at 37° C. for 30 minutes. Chilled medium containing 10% of Matrigel was added by pipetting gently down the sidewall of the well and incubated at 37° C. for ten days changing top medium every second day. Colony counts were performed on the tenth day; averages were taken from three fields of view using a 10× objective. Experiment was repeated three times.

[5] = tested on: PME-1; experiment: Quantitative real-time PCR of PME-1 expression after TGF-β treatment; assay type: cell-based, human; conditions: RL95-2 control cells and +PME-1 cells, TGF-β 24 hours
Experimental: In this study, we transfected RL95-2 cells to express empty vector (Control), over-expressing PME-1 (+PME-1) or expressing shRNA against PME-1 (−PME-1 SEQ ID NO: 2) followed by serum starvation for 24 hours. Afterwards, either vehicle or TGF-β treatment was performed at the end of the 24 hours. TGF-β was used to induce cells to initiate the EMT program. Gene expression analysis was conducted using quantitative real-time PCR.
Total RNA was extracted with Qiagen RNAEasy kit from RL95-2 cells. cDNA was synthesized using 500 ng-1 μg of RNA and SuperScript VILO c-DNA mix (Life Technologies). Taqman probes and PCR-mix were purchased from Life Technologies. All samples were run in triplicates. Results are representative of three independent experiments in which genes of interest were normalized to the house-keeping gene, 18S or GAPDH, where fold-change was calculated using the ddCt method.

[6] = tested on: PME-1; experiment: Western blot of PME-1 protein in RL95-2 cells; assay type: cell-based, human; conditions: GAPDH loading control
Experimental: We prepared RL95-2 cell lines expressing empty vector (control), over-expressing PME-1 (+PME-1), or expressing shRNA against PPME1, the gene that codes for PME-1 protein (−PME-1). Using these cells, we confirmed the appropriate level of PME-1 via real-time RT-PCR (data not shown) and Western blot analysis (FIG. 8). GAPDH was used as a loading control.
We also prepared two different shRNAs targeted against PME-1.
15 μg of protein was used for western analysis. PME-1 antibody (Santa Cruz) and COXIV (Cell Signaling Technologies) were used for detection of proteins and the blots were developed using chemiluminescence (Pierce ECL Western Blotting Substrate—Thermo Scientific) on the GE ImageQuant LAS 4000. For analysis of Akt, ERK, and β-catenin signaling in tissue culture, western analyses were completed as follows. RL95-2 cells stably infected with lentivirus expressing constructs were selected with puromycin (Invivogen). The cells were incubated with either 50 μM Akt inhibitor (LY 294002, Cell Signaling Technologies) or 40 μM ERK inhibitor (V0126, Cell Signaling Technologies) for 1-2 hours at 37° C. 1.5× Laemelli buffer (0.5 M Tris pH6.8, […], 10% sodium dodecyl sulfate, 100 mM EDTA) was used to prepare cell lysates. 20 μg of protein was used for western analysis. […]

COC(=O)N1C(=O)C(c2ccccc2)(C2CCCC2)N1C(=O)OC (stereo in doubt) [ABL-127, (3R)-Dimethyl 3-cyclopentyl-4-oxo-3-phenyl-1,2-diazetidine-1,2,-dicarboxylate]
decrease in the amount of foci formed ([1]; 50 nM every 2-3 days for 10 days): ~50% | percentage of cells capable of migrating ([2]; 50 nM): dramatic decrease in the percentage of cells that are capable of migrating | Tm of PME-1 with inhibitor [3]: ~65 °C

N#C/C(=C\c1cccn1S(=O)(=O)c1cccc([N+](=O)[O-])c1)S(=O)(=O)c1ccc(F)cc1 [AMZ-30, (E)-2-(4-Fluorophenylsulfonyl)-3-(1-(3-nitrophenylsulfonyl)-1H-pyrrol-2-yl)-acrylonitrile]
decrease in the amount of foci formed ([1]; 25 μM every 2-3 days for 10 days): ~50% | percentage of cells capable of migrating ([2]; 20 μM): dramatic decrease in the percentage of cells that are capable of migrating

TGF-β
colony number in Matrigel [4]: overall decrease in colony number | increase in PME-1 expression [5]: ~2 fold

shPPME1 no. 1: shRNA against PPME1, target sequence SEQ ID NO: 1 GTACAGCTATGGATGCACTTA, bp 554-574; full hairpin SEQ ID NO: 7 (CCGGGTACAGCTATGGATGCACTTACTCGAGTAAGTGCATCCATAGCTGTACTTTTT; listed as Homo sapiens)
PME-1 levels by Western blot analysis [6]: significantly decreased PME-1 levels
